# Source: patent US11607419B2, “Inhibitors of RAC1 and uses thereof for inducing bronchodilatation” (INSTITUT NATIONAL DE LA SANTE ET DE LA RECHERCHE MEDICALE …, priority 2017, dated 2023)
# pIC50: −log10 of the molar value. “Also recorded” adds a separate entry of the source.
# Experiments:
# [1] = biological target: T1, Rac-GTP (Rac1 activity) in NIH3T3 cells (Mus musculus, UniProt P63001); assay: Rac activation: active Rac immunoprecipitation and immunoblot of Rac-GTP in fibroblasts stimulated by a Rac activator; type: cell-based; conditions: pre-incubated 1 h
# T1 construct: endogenous in cells; host or cells: NIH3T3
# Procedure: (§1) Cell culture, transfection and actin staining. NIH3T3 cells grew up in DMEM (Gibco; Invitrogen) containing 10% foetal bovine serum, 100 units/mL penicillin and 100 μg/mL streptomycin at 37° C. and 5% CO2. The culture medium was changed every 72 hours.
# Analysis of Rac1 activity. In NIH3T3 cells lysates, Rac1 activity was evaluated by active Rac immunoprecipitation using anti-Rac-GTP antibody (26903, NewEast Biosciences). The precipitated active Rac was subjected to SDS-PAGE and detected by immunoblot with anti-Rac1 antibody (BD biosciences).
# RAC1 [2] = biological target: T2, RAC1 (Homo sapiens, UniProt P63000); assay: Surface plasmon resonance on immobilised Rac1; type: binding
# Procedure: Surface plasmon resonance studies. SPR immobilization was performed at 25° C. Rac1, RhoA and Cdc42 purified proteins were diluted to 5 μg/mL in Na^+ acetate buffer (pH 5.0) and injected into sensor chip CM5 (GE Healthcare) in a Biacore T200 (GE Healthcare) that was activated with NHS/EDC buffer. Approximately 5,000 response units of the purified protein were captured on the biosensor chip. Biosensor chips were blocked by an injection of […] ethanolamine (pH 8.5). […] SPR analysis was performed at 25° C. in HBSEP running buffer (5% DMSO). When indicated, EDTA (20 mM) was added in running buffer.
# Rac2 = biological target: T3, Rac2 (Homo sapiens, UniProt P15153); assay: Nucleotide exchange assay (mant-GTP/mant-GDP), Rac2; type: biochemical; conditions: 10 μM
# T3 construct: Full-length human small GTPases carrying a 6-histidine tag fused to their C-terminus; 6-histidine tag (C); made in house; host or cells: E. coli
# Excerpt: (§2) Nucleotide exchange assays. Full-length human small GTPases carrying a 6-histidine tag fused to their C-terminus were expressed in E. coli and purified to homogeneity. Small GTPases were loaded with GDP or N-methylanthraniloyl-GDP (GDP/mant-GDP, JenaBiosciences) before nucleotide exchange kinetics experiments.
# (§3) Nucleotide exchange kinetics were monitored by fluorescence of the mant fluorophore (λexc=360 nm, λem=440 nm) or tryptophan fluorescence (for Arf6; λexc=280 nm, λem=[…]) using a Cary Eclipse fluorimeter (Varian, Toulouse, France) at 30° C. under stirring. All kinetics assays were carried out in a buffer containing 50 mM Tris at pH 8, 300 mM NaCl, 2 mM MgCl2, 1 mM DTT and were started by addition of 100 μM N-methylanthraniloy-GTP or GTP (mant-GTP/GTP, JenaBiosciences). Nucleotide exchange kinetics were carried out at a concentration of small GTPases of 1 μM, either without GEF for spontaneous exchange, in the presence of 50 nM GEF for single kobs (s-1) determination. The kobs was determined from single-exponential fit of the fluorescence change. All experiments were carried out at least in triplicate.
# RhoG = biological target: T4, RhoG (Homo sapiens, UniProt P84095); assay: Nucleotide exchange assay, RhoG; type: biochemical; conditions: 10 μM
# T4 construct: Full-length human small GTPases carrying a 6-histidine tag fused to their C-terminus; 6-histidine tag (C); made in house; host or cells: E. coli
# T4 sequence (P84095 whole entry, the tested form may be a part): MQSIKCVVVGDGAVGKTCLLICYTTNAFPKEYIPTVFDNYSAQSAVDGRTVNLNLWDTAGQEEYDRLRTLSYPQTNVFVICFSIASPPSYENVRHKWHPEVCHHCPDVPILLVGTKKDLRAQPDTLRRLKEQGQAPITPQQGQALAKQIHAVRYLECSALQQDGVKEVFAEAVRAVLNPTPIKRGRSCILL
# Excerpt: as §2, §3
# Rab35 = biological target: T5, Rab35 (Homo sapiens, UniProt Q15286); assay: Nucleotide exchange assay, Rab35; type: biochemical; conditions: 10 μM
# T5 construct: Full-length human small GTPases carrying a 6-histidine tag fused to their C-terminus; 6-histidine tag (C); made in house; host or cells: E. coli
# T5 sequence (Q15286 whole entry, the tested form may be a part): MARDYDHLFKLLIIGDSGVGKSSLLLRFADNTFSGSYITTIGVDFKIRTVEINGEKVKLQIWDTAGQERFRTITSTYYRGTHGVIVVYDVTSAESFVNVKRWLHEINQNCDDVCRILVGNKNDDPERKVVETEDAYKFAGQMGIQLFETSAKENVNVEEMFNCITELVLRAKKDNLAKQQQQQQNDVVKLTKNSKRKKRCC
# Excerpt: as §2, §3
# Arf6 = biological target: T6, Arf6 (Homo sapiens, UniProt P62330); assay: Nucleotide exchange assay, Arf6; type: biochemical; conditions: 10 μM
# T6 construct: Full-length human small GTPases carrying a 6-histidine tag fused to their C-terminus; 6-histidine tag (C); made in house; host or cells: E. coli
# T6 sequence (P62330 whole entry, the tested form may be a part): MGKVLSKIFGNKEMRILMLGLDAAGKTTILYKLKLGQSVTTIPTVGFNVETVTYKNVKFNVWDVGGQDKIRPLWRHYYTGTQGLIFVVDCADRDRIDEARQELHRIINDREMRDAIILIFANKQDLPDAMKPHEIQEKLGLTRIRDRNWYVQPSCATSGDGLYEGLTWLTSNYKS
# Excerpt: as §2, §3
# [3] = system: Rac1-dependent ruffle formation in NIH3T3 cells; assay: Rac activator-induced membrane ruffling (actin staining) in fibroblasts; type: cell-based
# Procedure: as §1
# After treatments, fibroblasts were fixed with 4% paraformaldehyde in PBS, permeabilized in PBS 0.5% Triton X-100, and incubated with 130 μg/mL of FITC-conjugated phalloidin (Sigma) to visualize F-actin. After staining, images were captured by a fluorescence microscope (Nikon). The actin cytoskeleton organization was analyzed to observe Rac1-dependent ruffle formation.
# 3T3 cells migration = assay: Unidirectional cell migration; type: cell-based
# Procedure: Unidirectional cell migration. Cells (1000/well) were seeded in a 96 well plate with […] fibronectin stripes (CytooPlates Motility, CYTOO) in medium with 1% SVF and allowed to spread for 4 hours before capturing time-lapse images for 24 hours (image/10 minutes) on a Widefield Leica DMI 6000B drove with Metamorph software. Cells speed was measured with ImageJ software.
# fibroblast adhesion = assay: Cell adhesion assay using impedance technology; type: cell-based; conditions: fibroblasts
# Procedure: Cell adhesion assay using impedance technology. Cells (10000/well) were seeded in a 96 well plate microtiter xCELLigence assay plate (E-Plate) (ACEA Biosciences Inc.) and placed on the Real-time xCELLigence Cell Analyzer (Roche Applied Science) platform at 37° C. to measure the “cell index” every 5 min for a period of 6 hours. The cell index unit is defined as (Rn−Rb)/15. Rn is the cell electrode impedance of the well when it contains cells. Rb is the background impedance of the well with the media alone.
# [4] = system: murine bronchial rings (aSMC contraction); assay: Airways reactivity ex vivo: methacholine contraction of bronchial rings; conditions: bronchial rings from control mice, pre-incubated 1 h
# Procedure: Airways reactivity ex vivo. Murine primary bronchi were cleaned, cut in rings and mounted on a multichannel isometric myograph in Krebs-Henseleit physiological solution (118.4 mM NaCl, 4.7 mM KCl, 2 mM CaCl2, 1.2 mM MgSO4, 1.2 mM KH2PO4, 25 mM NaHCO3 and 11 mM glucose) at 37° C. under oxygen. A pre-tension of 0.5 mN was applied. We constructed dose-response curves to methacholine (Sigma). When indicated, rings were pre-incubated 1 h before contraction with (2) (or compound A4.1). The wire myograph was connected to a digital data recorder (MacLab/4e, AD Instruments) and recordings were analyzed using LabChart v7 software (AD Instruments).
# [5] = system: airway hyperresponsiveness; assay: Airway responsiveness in vivo (whole-body plethysmography, methacholine); parameters: species or system mice; conditions: mouse model of allergic asthma, acute nebulization (300 μl at 5 mM) 10 min before methacholine
# Procedure: Animals use and airways responsiveness measurement in vivo. All experimental procedures and animal care were performed in accordance with the European Community Standards on the Care and Use of Laboratory Animals and approved by the local ethics committee (Comité d'Ethique en Expérimentation Animale des Pays de Loire). Airway responsiveness was assessed in conscious, unrestrained mice using a barometric, whole-body plethysmography (EMKA Technologies) by recording respiratory pressure curves in response to inhaled methacholine (Sigma) at concentrations of 0-40 mg/ml for 1 min. Airway responsiveness was expressed in enhanced pause (Penh) units. The Penh values measured after stimulation were averaged and expressed as the fold-increase over baseline values. When required, the Rac inhibitor (2) was nebulised (300 μl at 5 mM) 10 min before methacholine challenge.
# RAC1 [6] = biological target: T2, RAC1
# RAC1 [7] = biological target: T2, RAC1; conditions: compared with NSC23766
# RAC1 [8] = biological target: T2, RAC1; assay: Nucleotide exchange assay (mant-GTP/mant-GDP), Rac1; type: biochemical; parameters: Full-length human small GTPases carrying a 6-histidine tag fused to their C-terminus; 6-histidine tag (C); made in house; host or cells: E. coli; conditions: 10 μM
# Excerpt: as §2, §3
# RhoA = RhoA (Homo sapiens, UniProt P61586); assay: Nucleotide exchange assay, RhoA; type: biochemical; parameters: Full-length human small GTPases carrying a 6-histidine tag fused to their C-terminus; 6-histidine tag (C); made in house; host or cells: E. coli; conditions: 10 μM
# Chain of RhoA (P61586 whole entry, the tested form may be a part): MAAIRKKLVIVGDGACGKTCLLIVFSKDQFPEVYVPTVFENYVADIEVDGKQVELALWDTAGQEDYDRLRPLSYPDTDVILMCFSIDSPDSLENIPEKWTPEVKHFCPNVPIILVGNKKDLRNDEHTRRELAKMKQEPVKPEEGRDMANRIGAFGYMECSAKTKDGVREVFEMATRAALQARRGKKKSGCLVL
# Excerpt: as §2, §3
smiles,measurement,setting,value
"COc1ccc(OC)c(NS(=O)(=O)c2ccc(NC(=O)CCSc3ccc(C)cc3)cc2)c1 [Compound (2), N-(4-(N-(2,5-dimethoxyphenyl)sulfamoyl)phenyl)-3-(p-tolylthio)propanamide]",Rac activation (Rac-GTP level) by a Rac activator,[1],prevented
same,SPR binding to Rac1,RAC1 [2]; 0.78-25 μM injected,binds Rac1
same,SPR interaction with Rac1 nucleotide free,RAC1 [2]; EDTA in running buffer,significantly increased
same,Bmax GTP-binding on Rac2,Rac2,decreased
same,nucleotide exchange kinetics of RhoG,RhoG,did not alter
same,nucleotide exchange kinetics of Rab35,Rab35,did not alter
same,nucleotide exchange kinetics of Arf6,Arf6,did not alter
same,pIC50,"[3]; Mus musculus, NIH3T3, fibroblasts, dose-dependent inhibition",9.17
same,efficiency of Rac activator to induce ruffle,[3]; added 1 h before Rac activation,blocks; also recorded: strongly decreased
same,migration inhibition compared with NSC23766,3T3 cells migration,higher inhibition
same,migration rate of the cells,3T3 cells migration,decreases; also recorded: slow down
same,adhesion inhibition compared with NSC23766,fibroblast adhesion,higher inhibition
same,adhesion rate of the cells,fibroblast adhesion; 10 μm,decreases; also recorded: slow down
same,maximal contraction induced by methacholine,[4],dose-dependent reduced
same,airway hyperresponsiveness (AHR),[5],prevented
same,pIC50,RAC1 [6],9.00
same,melting point,,136 °C
same,Relative activity (NSC23766),RAC1 [7],>
same,Bmax GTP-binding on Rac1,RAC1 [8],decreased
same,nucleotide exchange kinetics of RhoA,RhoA,did not alter
